Values of other authors as cited in patent US12223643B2, “Machine-learning system for diagnosing disorders and diseases and determining drug responsiveness” (Sanford Burnham Prebys Medical Discovery Institute, priority 2019, dated 2025).

Test system: bipolar disorder (BPD) patients

**Q.** What does the source list for O=C([O-])[O-].[Li+].[Li+] [Lithium carbonate]?
**A.** patients respond to lithium treatment: approximately 35%; risk of suicide: reduce the risk of suicide
